Molecules are shown by their SMILES.

A word on the melting point: it is the temperature, or range, at which the solid turns liquid.

In turn, `CC(=O)CC(=S)SCc1cn(C(c2ccccc2)(c2ccccc2)c2ccccc2)nn1` came in with a melting point of 172 to 173 °C.
`CCOC(=O)c1cnn2c(-c3ccc(OC)c(OC)c3)ccnc12` gave a melting point of 148 to 149 °C.
Take `C#Cc1ccc(N(c2ccc(C#C)cc2)c2ccc(C#C)cc2)cc1`: the melting point worked out at 115 °C.
Compound `CS(=O)(=O)OCC1COC(=O)N1c1ccc(Cl)cc1` (stereo unspecified) came in with a melting point of 124 to 126 °C.
Consider `CCOC(=O)/C=C/c1cc2nc(CC)n(CCc3ccccc3)c(=O)c2cc1F`, for which the melting point fell in the range of 140 to 142 °C.
Compound `CCCc1nc(Nc2ccc3cn[nH]c3c2)nc(NC2CCN(S(C)(=O)=O)CC2)n1` came in with a melting point of 219 to 221 °C.
As to `COc1cccc2c1c(S(N)(=O)=O)nn2C`, the melting point lay in the range of 268 to 270 °C.
In the case of `O=C(Nc1nc(Cl)nc(Cl)n1)NS(=O)(=O)c1cccc2cccnc12`, the melting point lay within 145 to 147 °C.
As to `Cc1nc2ccccc2c(=O)n1-c1ccc(Cl)cc1`, the melting point is 141 to 142 °C.
In the case of `COC(=O)c1nc(-c2ccc(Cl)c(OC)c2F)nc(N)c1/C=C/Br` it was 171 to 173 °C; in that of `C=CCSc1cn(C)cc(-c2ccccc2)c1=O`, 136 to 138 °C.
For the compound `COc1cc(OC)nc(NC(=O)NS(=O)(=O)c2ccccc2CCOC(C)=O)n1`, the melting point was 160 to 162 °C.
On to `COC(=O)c1sc(Cl)c(Cl)c1NC(C)=O`, for which the melting point was in the range of 136 to 138 °C.
Compound `COC(=O)CN1CN(c2ccccc2)C2(CCN(Cc3cccc4ccccc34)CC2)C1=O` gave a melting point of 122 to 135 °C.
The compound `CCOC(=O)C(Cc1ccccc1)CP(=O)(OCC)OCC` (stereo unspecified) showed a melting point of 58 to 72 °C.
In the case of `N#CC(Cc1c[nH]cn1)(c1ccccc1)c1ccc(Cl)cc1` (stereo unspecified) it was 135 to 136 °C; in that of `CCCC(CCC)(CC(=O)Nc1cccc(OCc2ccc3ccc(F)cc3n2)c1)C(=O)O`, 155 to 156 °C.
For `CCc1c(-c2ccc(O)cc2)c2cc(C(C)=O)c3cc(OC)cc1n32`, the melting point lay in the range of 245 to 246 °C.
In the case of `CCCCc1nc2c(N)nc3ccccc3c2n1CCOCCS(C)(=O)=O` it was 168 to 170 °C; in that of `CN1CCN(C2=Nc3ccccc3N3CCc4cccc2c43)CC1`, 149 to 151 °C; in that of `CC(=O)c1ccc(C2CC(C)(C)CC(C)(C)C2)c(Cl)c1`, 64 °C.
In turn, `CC(=O)c1cc(S(N)(=O)=O)ccc1F` gave a melting point of 172 to 173 °C.
As to `CC#CCOc1ccc(S(=O)(=O)C2(C(=O)NO)CCN(C(C)C)CC2)cc1`, the melting point stood at 105 °C.
For `CN(C)CCC=C1c2ccccc2COc2ccc(CCO)cc21`, the melting point was 100 to 102 °C.
In the case of `NS(=O)(=O)c1cc(C(=O)c2ccccc2)ccc1Cl` it was 183 to 185 °C.
Compound `CCNc1c(OC)cc(Cc2cnc(N)nc2N)cc1OC` had a melting point of 186 to 188 °C.
In the case of `Cc1cc(-n2ccc(=O)[nH]c2=O)cc(Cl)c1S(=O)(=O)c1ccc(Cl)cc1` it was 235 to 242 °C; in that of `O=[N+]([O-])c1cc(C(O)CCN2CCC(c3ccccc3)CC2)ccc1C1CCCCC1` (stereo unspecified), 148 to 150 °C; in that of `CSc1nc(-c2ccccc2)n(-c2ccc(C)cc2)c(=O)c1C#N`, 258 to 260 °C.
For the compound `CC1=N/C(=C\c2c[nH]c3cc(C)ccc23)C(=O)O1`, the melting point lay in the range of 194 to 196 °C.
The result for `NC(=NOC(=O)c1ccccc1)c1nc(Cl)c(Cl)[nH]1` reads 177 to 178 °C.
The result for `COc1ccc(S(=O)(=O)Nc2cc(Cl)cc(Cl)c2OC)cc1N1CCNCC1` reads 189 to 190 °C; that for `CCCc1nc(N)c(C#N)[nH]1`, 117 to 119 °C; that for `Cc1c(CCC(=O)O)cc(C(C)(C)C)c(O)c1C`, 191 to 193 °C.
In turn, `C[C@H]1CC(=O)O[C@@H]1CO` returned a melting point of 104 to 105 °C.
Regarding `O=C1c2cccc(O)c2C(=O)c2sc(-c3ccccc3)nc21`, the melting point is 264 °C.
As for `O=C(O)c1[nH]cc(OCc2ccccc2)c(=O)c1Br`, the melting point turned out to be 120 °C.
Regarding `COc1ccc(-c2ncn(C)c2-c2ccc(OC)cc2)cc1`, the melting point was determined as 122 °C.
The compound `Cc1cccc(C)c1NNC(=O)c1cccc2c1CC(N(C(=O)C(F)(F)F)C1CC1)CO2` (stereo unspecified) had a melting point of 146 to 149 °C.
The result for `CCn1ccc(=O)c2cnc(-c3cccnc3)nc21` reads 195 to 196 °C; that for `CS(=O)c1ccc(C2=C(Br)C(=O)C(C)(C)O2)cc1` (stereo unspecified), 117 to 118 °C; that for `NS(=O)(=O)c1ccc(C=O)cc1`, 104 to 106 °C.
The result for `Cn1c(COc2ccc(CC3SC(=O)NC3=O)cc2)nc2ncccc21` (stereo unspecified) reads 231 to 232 °C; that for `CCOC(=O)OCC1(C)COC(=O)OC1`, 68 to 69 °C; that for `Cc1ccc(C=NNC(=O)c2ccc(O)cc2)cc1`, 253 °C.
Compound `COC(=O)c1cc(OCCCCCCOc2ccc(-c3ccccc3)cc2)ccc1O` registered a melting point of 91 to 92 °C.
`CCCCOc1ccc(CCCCCC(=O)O)cc1` showed a melting point of 39 to 40 °C.
Take `COc1ccc(OC)c2c1COC2=O`: the melting point fell in the range of 168 to 170 °C.
The compound `Nc1ccc(-c2ccc(-c3nc(N)nc(N)n3)cc2)cc1` registered a melting point of more than 250 °C.
In the case of `CN1C2C=C(c3c[nH]c(-c4ccc(F)cc4)c3-c3ccncc3)CC1CC2` (stereo unspecified) it was 243 to 245 °C; in that of `O=C1CCCN1Cc1ccc2ccn(C3CCN(CCc4ccc(F)cc4)CC3)c2c1`, 106 to 108 °C; in that of `COC(=O)c1cc(-c2ccc(-c3nccs3)cc2)n(-c2ccc(S(N)(=O)=O)cc2)n1`, 204 to 206 °C.
`COc1ccc(Oc2c(N)cc(C(=O)O)cc2SCc2ccccc2)cc1` yielded a melting point of 158 to 161 °C.
With `N#Cc1cc(C(=O)NCc2cccc([N+](=O)[O-])c2)c(OCC(=O)O)cc1F`, the melting point was in the range of 179 to 180 °C.
Take `CCCCC1C2CCCC(C2=O)C2(O)CCCCC12` (stereo unspecified): the melting point is 140 to 141 °C.
Take `CC(C)C(c1cnccc1C(F)(F)F)N(C)C(=O)Cc1ccccc1` (stereo unspecified): the melting point was determined as 71.2 °C.
As to `CS(=O)(=O)Nc1ccc([N+](=O)[O-])cc1SC1CCCCC1`, the melting point was determined as 140 °C.
The result for `COc1cc(C)cc(OC)c1C1=NC(NC(=O)c2cc3ccccc3[nH]2)C(=O)N(C)c2ccccc21` (single isomer, unassigned; (-)) reads 135 °C; that for `O=C1CC2(CN1)CC(=O)c1cc(F)ccc12` (stereo unspecified), 198 to 202 °C.
As for `N[C@@H]1CN2C(=O)N(c3cc(Cl)cc(Cl)c3)C(=O)[C@@]2(Cc2ccc(Br)cc2)C1`, the melting point amounted to 64.4 °C.
`Cc1cccc(CNc2ncccc2[N+](=O)[O-])n1` came in with a melting point of 132 °C.
In the case of `CC(C)(C)OC(=O)CN(C(=O)CN1C(=O)c2ccccc2C1=O)c1ccc2c(c1)OCO2`, the melting point was determined as 166 °C.
In turn, `Nc1ccc(-c2nc(C(=O)Nc3nccs3)c(-c3ccc(C(F)(F)F)cc3)[nH]2)cc1` registered a melting point of 175 to 177 °C.
`O=C1NCc2cccn2-c2ccsc21`: the melting point came out at 191 °C.
Compound `Cn1c(=O)c2c(nc(C=Cc3cccc(N)c3)n2C)n(C)c1=O` had a melting point of 222 to 224 °C.
In the case of `COc1ccc(-n2nc(C)c3c(C(=O)Nc4c(C)ccnc4C)cc(C)nc32)cc1`, the melting point is 224 to 227 °C.
